Columns and labels:
[1] = molecular target: GST-Bcl-XL (Homo sapiens, UniProt Q07817); test: TR-FRET binding assay, GST-Bcl-XL with F-Bak peptide probe; settings: TR-FRET Binding Affinity
Method in brief: (§1)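 Displacement of a fluorescein-labelled Bak peptide from the GST-tagged protein was followed by time-resolved FRET with a terbium anti-GST donor after 3 h incubation at room temperature. Inhibition constants were calculated with Wang's equation.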

[2] = molecular target: GST-Bcl-2 (Homo sapiens, UniProt P10415); test: TR-FRET binding assay, GST-Bcl-2 with F-Bak peptide probe; settings: for Ki: TR-FRET Binding Affinity
Sequence of GST-Bcl-2 (P10415 whole entry): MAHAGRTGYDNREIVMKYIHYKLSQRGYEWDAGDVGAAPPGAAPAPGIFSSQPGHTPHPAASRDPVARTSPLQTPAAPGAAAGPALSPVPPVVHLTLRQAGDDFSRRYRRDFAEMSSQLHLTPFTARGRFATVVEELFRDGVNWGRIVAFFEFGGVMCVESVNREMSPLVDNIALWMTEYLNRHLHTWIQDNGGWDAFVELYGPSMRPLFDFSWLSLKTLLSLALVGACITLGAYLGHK
Method in brief: as §1

[3] = GST-Bcl-XL, F-Bak peptide probe
[4] = ratio of TR-FRET Ki values, Bcl-XL over Bcl-2
[5] = TR-FRET, Bcl-XL Ki divided by Bcl-2 Ki

Sequence of GST-Bcl-XL (Q07817 whole entry): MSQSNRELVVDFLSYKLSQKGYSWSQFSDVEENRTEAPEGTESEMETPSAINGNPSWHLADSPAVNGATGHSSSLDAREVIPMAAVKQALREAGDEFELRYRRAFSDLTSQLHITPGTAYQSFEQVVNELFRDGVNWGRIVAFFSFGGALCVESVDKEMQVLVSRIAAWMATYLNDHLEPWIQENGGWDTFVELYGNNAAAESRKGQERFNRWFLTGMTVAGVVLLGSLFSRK

Compound | Ki [1, 3] [nM] | Ki ([2]; GST-Bcl-2, F-Bak peptide probe) [nM] | Binding selectivity ratio (Bcl-XL Ki/Bcl-2 Ki) [2, 4] | Ki [1] [nM] | Ki [2] [nM] | Binding selectivity ratio (Bcl-XL Ki/Bcl-2 Ki) [2, 5]
CC1(C)CCC(CN2CCN(c3ccc(C(=O)NS(=O)(=O)c4cnc(O[C@@H]5CCN(C(CF)CF)C5)c(Cl)c4)c(Oc4cccc5[nH]ncc45)c3)CC2)=C(c2ccc(Cl)cc2)C1 [Example 434, N-{[5-chloro-6-({(3R)-1-[2-fluoro-1-(fluoromethyl)ethyl]pyrrolidin-3-yl}oxy)pyridin-3-yl]sulfonyl}-4-(4-{[2-(4-chlorophenyl)-4,4-dimethylcyclohex-1-en-1-yl]methyl}piperazin-1-yl)-2-(1H-indazol-4-yloxy)benzamide] | 75.5 | 0.052 | 1459.4 |  |  | 
O=C(NS(=O)(=O)c1ccc(NC2CCN(S(=O)(=O)c3cccc4cccnc34)CC2)c([N+](=O)[O-])c1)c1ccc(N2CCN(Cc3ccccc3-c3ccc(Cl)cc3)CC2)cc1Oc1ccccc1 [Example 158, 4-{4-[(4′-chloro-1,1′-biphenyl-2-yl)methyl]piperazin-1-yl}-N-[(3-nitro-4-{[1-(quinolin-8-ylsulfonyl)piperidin-4-yl]amino}phenyl)sulfonyl]-2-phenoxybenzamide] | > 660 | 64.8 |  |  |  | 
CC1(C)CCC(CN2CCN(c3ccc(C(=O)NS(=O)(=O)c4cnc(OCC5CCOC5)c(Cl)c4)c(Oc4cccc5[nH]ncc45)c3)CC2)=C(c2ccc(Cl)cc2)C1 (centres unmarked) [Example 420, 4-(4-{[2-(4-chlorophenyl)-4,4-dimethylcyclohex-1-en-1-yl]methyl}piperazin-1-yl)-N-{[5-chloro-6-(tetrahydrofuran-3-ylmethoxy)pyridin-3-yl]sulfonyl}-2-(1H-indazol-4-yloxy)benzamide] | 72.1 | 0.063 | 1153.3 |  |  | 
CN(C)CCCNc1ccc(S(=O)(=O)NC(=O)c2ccc(N3CCN(CC4=C(c5ccc(Cl)cc5)CC(C)(C)CC4)CC3)cc2Oc2ccc3[nH]ccc3c2)cc1S(=O)(=O)C(F)(F)Cl [Example 67, N-[(3-{[chloro(difluoro)methyl]sulfonyl}-4-{[3-(dimethylamino)propyl]amino}phenyl)sulfonyl]-4-(4-{[2-(4-chlorophenyl)-4,4-dimethylcyclohex-1-en-1-yl]methyl}piperazin-1-yl)-2-(1H-indol-5-yloxy)benzamide] | > 660 | 289 |  |  |  | 
CC(=O)N1CCOC(CNc2ccc(S(=O)(=O)NC(=O)c3ccc(N4CCN(CC5=C(c6ccc(Cl)cc6)CC(C)(C)CC5)CC4)cc3Oc3cccc4[nH]cnc34)cc2[N+](=O)[O-])C1 (centres unmarked) [Example 457, N-[(4-{[(4-acetylmorpholin-2-yl)methyl]amino}-3-nitrophenyl)sulfonyl]-2-(1H-benzimidazol-4-yloxy)-4-(4-{[2-(4-chlorophenyl)-4,4-dimethylcyclohex-1-en-1-yl]methyl}piperazin-1-yl)benzamide] |  |  |  | 331 | 0.045 | 7413.6
CC1(C)CCC(CN2CCN(c3ccc(C(=O)NS(=O)(=O)c4cnc(OCC5CCOCC5)c(Cl)c4)c(Oc4cccc5[nH]cnc45)c3)CC2)=C(c2ccc(Cl)cc2)C1 [Example 500, 2-(1H-benzimidazol-4-yloxy)-4-(4-{[2-(4-chlorophenyl)-4,4-dimethylcyclohex-1-en-1-yl]methyl}piperazin-1-yl)-N-{[5-chloro-6-(tetrahydro-2H-pyran-4-ylmethoxy)pyridin-3-yl]sulfonyl}benzamide] |  |  |  | 147 | < 0.01 | >14734.0
O=C(NS(=O)(=O)c1ccc(NCC2CCOCC2)c([N+](=O)[O-])c1)c1ccc(N2CCN(Cc3cc(N4CCOCC4)ccc3-c3ccc(Cl)cc3)CC2)cc1Oc1cccc2[nH]ccc12 [Example 198, 4-{4-[(4′-chloro-4-morpholin-4-yl-1,1′-biphenyl-2-yl)methyl]piperazin-1-yl}-2-(1H-indol-4-yloxy)-N-({3-nitro-4-[(tetrahydro-2H-pyran-4-ylmethyl)amino]phenyl}sulfonyl)benzamide] | > 660 | 3.97 |  |  |  | 
CC1(C)CCC(CN2CCN(c3ccc(C(=O)NS(=O)(=O)c4cnc(OC[C@H]5CC[C@H](C#N)CC5)c(Cl)c4)c(Oc4cccc5[nH]ncc45)c3)CC2)=C(c2ccc(Cl)cc2)C1 [Example 492, N-({5-chloro-6-[(trans-4-cyanocyclohexyl)methoxy]pyridin-3-yl}sulfonyl)-4-(4-{[2-(4-chlorophenyl)-4,4-dimethylcyclohex-1-en-1-yl]methyl}piperazin-1-yl)-2-(1H-indazol-4-yloxy)benzamide] |  |  |  | 45.1 | < 0.01 | >4509.6
O=C(NS(=O)(=O)c1ccc(NCC2CCOCC2)c(S(=O)(=O)C(F)(F)F)c1)c1ccc(N2CCN(Cc3ccccc3-c3ccc(Cl)cc3)CC2)cc1Oc1ccccc1 [Example 163, 4-{4-[(4′-chloro-1,1′-biphenyl-2-yl)methyl]piperazin-1-yl}-2-phenoxy-N-({4-[(tetrahydro-2H-pyran-4-ylmethyl)amino]-3-[(trifluoromethyl)sulfonyl]phenyl}sulfonyl)benzamide] | > 660 | 5.62 |  |  |  | 
CC[C@]1(O)CC[C@H](COc2ncc(S(=O)(=O)NC(=O)c3ccc(N4CCN(CC5=C(c6ccc(Cl)cc6)CC(C)(C)CC5)CC4)cc3Oc3cccc4[nH]ncc34)cc2Cl)CC1 [Example 508, N-({5-chloro-6-[(trans-4-ethyl-4-hydroxycyclohexyl)methoxy]pyridin-3-yl}sulfonyl)-4-(4-{[2-(4-chlorophenyl)-4,4-dimethylcyclohex-1-en-1-yl]methyl}piperazin-1-yl)-2-(1H-indazol-4-yloxy)benzamide] |  |  |  | 43.2 | < 0.01 | >4315.2
O=C(NS(=O)(=O)c1ccc(NC2CCN(S(=O)(=O)c3ccccc3)CC2)c([N+](=O)[O-])c1)c1ccc(N2CCN(Cc3ccccc3-c3ccc(Cl)cc3)CC2)cc1Oc1ccccc1 [Example 157, 4-{4-[(4′-chloro-1,1′-biphenyl-2-yl)methyl]piperazin-1-yl}-N-[(3-nitro-4-{[1-(phenylsulfonyl)piperidin-4-yl]amino}phenyl)sulfonyl]-2-phenoxybenzamide] | > 660 | 4.45 |  |  |  | 
CC1(C)CCC(CN2CCN(c3ccc(C(=O)NS(=O)(=O)c4cnc(OCC5(F)CCC(C)(O)CC5)c(Cl)c4)c(Oc4cccc5[nH]ncc45)c3)CC2)=C(c2ccc(Cl)cc2)C1 (stereo not drawn) [Example 512, N-({5-chloro-6-[(cis-1-fluoro-4-hydroxy-4-methylcyclohexyl)methoxy]pyridin-3-yl}sulfonyl)-4-(4-{[2-(4-chlorophenyl)-4,4-dimethylcyclohex-1-en-1-yl]methyl}piperazin-1-yl)-2-(1H-indazol-4-yloxy)benzamide] |  |  |  | 17.3 | < 0.01 | >1733.8
COc1ccc(S(=O)(=O)NC(=O)c2ccc(N3CCN(Cc4ccccc4-c4ccc(Cl)cc4)CC3)cc2Oc2ccccc2)cc1 [Example 60, 4-{4-[(4′-chloro-1,1′-biphenyl-2-yl)methyl]piperazin-1-yl}-N-[(4-methoxyphenyl)sulfonyl]-2-phenoxybenzamide] | > 660 | 18.9 |  |  |  | 
Cc1ccc(S(=O)(=O)NC(=O)c2ccc(N3CCN(Cc4ccccc4-c4ccc(Cl)cc4)CC3)cc2Oc2ccccc2)cc1 [Example 61, 4-{4-[(4′-chloro-1,1′-biphenyl-2-yl)methyl]piperazin-1-yl}-N-[(4-methylphenyl)sulfonyl]-2-phenoxybenzamide] | > 660 | 52.2 |  |  |  | 
CC1(C)CCC(CN2CCN(c3ccc(C(=O)NS(=O)(=O)c4ccc(NC[C@H]5CC[C@H](C#N)CC5)c([N+](=O)[O-])c4)c(Oc4cccc5[nH]cnc45)c3)CC2)=C(c2ccc(Cl)cc2)C1 [Example 462, Trans-2-(1H-benzimidazol-4-yloxy)-4-(4-{[2-(4-chlorophenyl)-4,4-dimethylcyclohex-1-en-1-yl]methyl}piperazin-1-yl)-N-[(4-{[(4-cyanocyclohexyl)methyl]amino}-3-nitrophenyl)sulfonyl]benzamide] |  |  |  | 18.4 | 0.026 | 
O=C(NS(=O)(=O)c1ccc(NCC2CCOCC2)c([N+](=O)[O-])c1)c1ccc(N2CCN(Cc3cc(OCCCN4CCCCC4)ccc3-c3ccc(Cl)cc3)CC2)cc1Oc1ccccc1 [Example 114, 4-(4-{[4′-chloro-4-(3-piperidin-1-ylpropoxy)-1,1′-biphenyl-2-yl]methyl}piperazin-1-yl)-N-({3-nitro-4-[(tetrahydro-2H-pyran-4-ylmethyl)amino]phenyl}sulfonyl)-2-phenoxybenzamide] | 14.3 | 0.096 |  |  |  | 
O=C(NS(=O)(=O)c1ccc(NCCCN2CCOCC2)c([N+](=O)[O-])c1)c1ccc(N2CCN(Cc3ccccc3-c3ccc(Cl)cc3)CC2)cc1Oc1ccc2ccccc2c1 [Example 36, 4-{4-[(4′-chloro-1,1′-biphenyl-2-yl)methyl]piperazin-1-yl}-N-({4-[(3-morpholin-4-ylpropyl)amino]-3-nitrophenyl}sulfonyl)-2-(2-naphthyloxy)benzamide] | 8.99 | 0.796 |  |  |  | 
CC1(C)CCC(CN2CCN(c3ccc(C(=O)NS(=O)(=O)c4cnc(OCC5CCc6nccn6C5)c(Cl)c4)c(Oc4cccc5[nH]ncc45)c3)CC2)=C(c2ccc(Cl)cc2)C1 (centres unmarked) [Example 536, 4-(4-{[2-(4-chlorophenyl)-4,4-dimethylcyclohex-1-en-1-yl]methyl}piperazin-1-yl)-N-{[5-chloro-6-(5,6,7,8-tetrahydroimidazo[1,2-a]pyridin-6-ylmethoxy)pyridin-3-yl]sulfonyl}-2-(1H-indazol-4-yloxy)benzamide] |  |  |  | 22.2 | 0.025 | 886.1

From US9073855B2, “BCL-2 selective apoptosis-inducing agents for the treatment of cancer and immune diseases” (AbbVie Inc., priority 2008, dated 2015)
